Experimental data reported in publication PMC5017016, “Calcium/calmodulin alleviates substrate inhibition in a strawberry UDP-glucosyltransferase involved in fruit anthocyanin biosynthesis” (BMC Plant Biology, 2016).

Molecular target: T1, FvUGT1 (Fragaria vesca, UniProt A0A1S5NSV4)
T1 construct: gene UGT1; full-length ORF in pET-32 (KpnI/BamHI), N- and C-terminal His-tags kept, fusion 72 kD, E. coli BL21(DE3) pLysS, Ni-NTA; oligomer state unknown
T1 sequence (A0A1S5NSV4 1-465): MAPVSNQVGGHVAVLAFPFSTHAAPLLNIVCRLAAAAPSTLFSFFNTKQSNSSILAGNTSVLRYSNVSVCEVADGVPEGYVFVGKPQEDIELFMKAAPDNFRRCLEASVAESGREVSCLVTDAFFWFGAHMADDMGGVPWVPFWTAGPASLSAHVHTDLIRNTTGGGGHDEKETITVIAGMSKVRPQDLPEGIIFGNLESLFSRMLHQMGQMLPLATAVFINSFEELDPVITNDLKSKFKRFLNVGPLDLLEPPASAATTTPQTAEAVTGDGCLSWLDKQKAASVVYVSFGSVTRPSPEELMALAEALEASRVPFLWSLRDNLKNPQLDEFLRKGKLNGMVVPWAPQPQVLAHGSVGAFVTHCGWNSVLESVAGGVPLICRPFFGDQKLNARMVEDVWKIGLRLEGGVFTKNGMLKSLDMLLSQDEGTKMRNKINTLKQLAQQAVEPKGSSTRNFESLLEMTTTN
Experiment: phosphatase-coupled malachite green glycosyltransferase assay; partial uncompetitive substrate inhibition fit (modified Hill, x = […])
Format: biochemical
Details: second site, no calmodulin, 5 mM UDP-Glc, 0–1,400 μM pelargonidin chloride, 10 mM CaCl2, pH 7.5, 37 °C

- K i: 331.5 ± 13.3 µM
SMILES: Oc1ccc(-c2[o+]c3cc(O)cc(O)c3cc2O)cc1 [pelargonidin]
